Reference: patent US20110040086A1, “Novel Beta-Lactam Antibiotics, Methods for Their Production, and Their Use” (DRITTE PATENTPORTFOLIO BETEILIGUNGSGESELLSCHAFT MB, priority 2007, published 2011)

Columns and labels:
S. epidermidis 1068 = experiment: agar diffusion test (Test System II, multi-resistant germs); type: cell-based, Staphylococcus epidermidis; parameters: key: r = resistant (no detectable zone of inhibition)
Experimental: (§1) The test substances are deposited in stepped quantities (10 μg, 50 μg, 100 μg) onto active ingredient carriers (sensi-discs). For this purpose, the test substances are dissolved in methanol or A. dest. according to their solubility. Each inoculated plate is fitted with 3 test sheets.
(§2) Test System II (Effect Against Multi-Resistant Germs)
(§3) For this purpose, bacteria is cultivated on Müller-Hinton-Agar II plates.
(§4) With 1-1.5 ml physiological saline solution, a bacteria suspension of McFarland 0.5 (corresponds to a bacteria density of 150×10^6 germs) is produced. Then, with a sterile glass rod, a small drop of bacteria suspension is placed on the Müller-Hinton-Agar plate and coated in three layers (vertical, horizontal, and transverse). Thereafter, the sensi-discs with the novel semi-synthetic test substances are placed on top. The fitted plates are incubated for 18-20 hours at 37° C. After incubation, the diameters of the zones of inhibition are read as a measure for the antimicrobial activity of the novel semi-synthetic test substances.

S. epidermidis 1071 = experiment: as above; type: cell-based, Staphylococcus epidermidis; parameters: key: r = resistant (no detectable zone of inhibition)
Experimental: as §1, §2, §3, §4

S. epidermidis 847 = experiment: as above; type: cell-based, Staphylococcus epidermidis; parameters: key: r = resistant (no detectable zone of inhibition)
Experimental: as §1, §2, §3, §4

S. epidermidis 563 = experiment: as above; type: cell-based, Staphylococcus epidermidis; parameters: key: r = resistant (no detectable zone of inhibition)
Experimental: as §1, §2, §3, §4

[1] = system: Enterococcus faecalis 769; experiment: as above; type: cell-based; parameters: key: r = resistant (no detectable zone of inhibition)
Experimental: as §1, §2, §3, §4

[2] = system: Staphylococcus aureus 315; experiment: as above; type: cell-based; parameters: key: r = resistant (no detectable zone of inhibition)
Experimental: as §1, §2, §3, §4

[3] = system: S. aureus North Germany strain; experiment: as above; type: cell-based, Staphylococcus aureus; parameters: key: r = resistant (no detectable zone of inhibition)
Experimental: as §1, §2, §3, §4

S. aureus 36881 = experiment: as above; type: cell-based, Staphylococcus aureus; parameters: key: r = resistant (no detectable zone of inhibition)
Experimental: as §1, §2, §3, §4

S. aureus 526 = experiment: as above; type: cell-based, Staphylococcus aureus; parameters: key: r = resistant (no detectable zone of inhibition)
Experimental: as §1, §2, §3, §4

S. aureus 33490 = experiment: as above; type: cell-based, Staphylococcus aureus; parameters: key: r = resistant (no detectable zone of inhibition)
Experimental: as §1, §2, §3, §4

S. aureus 39105 = experiment: as above; type: cell-based, Staphylococcus aureus; parameters: key: r = resistant (no detectable zone of inhibition)
Experimental: as §1, §2, §3, §4

S. aureus 34289 = experiment: as above; type: cell-based, Staphylococcus aureus; parameters: key: r = resistant (no detectable zone of inhibition)
Experimental: as §1, §2, §3, §4

S. aureus 520 = experiment: as above; type: cell-based, Staphylococcus aureus; parameters: key: r = resistant (no detectable zone of inhibition)
Experimental: as §1, §2, §3, §4

B. subtilis AWD 166 = experiment: agar diffusion test (antimicrobial effect); type: cell-based, Bacillus subtilis
Experimental: (§5) The seeding of bacteria in agar is selected so that, dense, but not confluent individual colonies develop after the incubation.
(§6) The inoculated nutrient agar is set in sterile Petri dishes and left standing for a few minutes for drying.
as §1
(§7) After a 20-hour incubation time at 37° C., the zones of inhibition around the individual test sheets could be measured. The diameter of the zone of inhibition is specified in mm.

E. faecalis 945 = experiment: agar diffusion test (Test System II, multi-resistant germs); type: cell-based, Enterococcus faecalis; parameters: key: r = resistant (no detectable zone of inhibition)
Experimental: as §1, §2, §3, §4

[4] = system: Escherichia coli SBUG 1135; experiment: agar diffusion test (Test System 1, antimicrobial effect); type: cell-based; parameters: key: r = resistant (no detectable zone of inhibition)
Experimental: (§8) Test System 1 (Antimicrobial Effect)
(§9) The test germs Escherichia coli SBUG 1135 and Bacillus megaterium SBUG 1152 are drawn overnight (17 hours at 37° C.) in 5 ml nutrient medium II. The incubation is performed in a shaking incubator (INFORS AG CH 4103, Bottmingen, Switzerland) at a shaking frequency of 180 rpm.
(§10) After 17 h incubation time, Escherichia coli has reached a cell density of ca. 2.4×10^10 cells/ml and Bacillus megaterium a cell density of ca. 2.1×10^8 cells/ml.
as §5
Escherichia coli: the ÜN is diluted 1:100 with physiological saline solution, of which 0.1 ml is converted into 10 ml nutrient agar. That corresponds to a cell count of 10^6.
as §6, §1, §7

S. epidermidis 125 = experiment: agar diffusion test (Test System II, multi-resistant germs); type: cell-based, Staphylococcus epidermidis
Experimental: as §1, §2, §3, §4

[5] = system: Bacillus megaterium SBUG 1152; experiment: agar diffusion test (Test System 1, antimicrobial effect); type: cell-based
Experimental: as §8, §9, §10, §5
Bacillus megaterium: 0.1 ml of non-diluted overnight culture (ÜN) in 10 ml nutrient agar corresponds to a cell count of 10^6.
as §6, §1, §7

S. aureus ATCC 6538 = experiment: agar diffusion test (Test System II, multi-resistant germs); type: cell-based, Staphylococcus aureus
Experimental: as §1, §2, §3, §4

S. aureus 38418 = experiment: as above; type: cell-based, Staphylococcus aureus
Experimental: as §1, §2, §3, §4

In the case of “7-[2-(2-ethoxycarbonyl-3,6-dioxocyclohexa-1,4-dienylamino)-2-phenyl-acetylamino]-desacetoxycephalosporanic acid [1h]”, the “Diameter of zone of inhibition” value (S. epidermidis 1068; Quantity n 0.019) is reported as “r”, the “Diameter of zone of inhibition” value (S. epidermidis 1068; Quantity n 0.09) is reported as 10 mm and the “Diameter of zone of inhibition” value (S. epidermidis 1068; Quantity n 0.19) is reported as 16 mm. The “Diameter of zone of inhibition” value (S. epidermidis 1071; Quantity n 0.019) was “r”, the “Diameter of zone of inhibition” value (S. epidermidis 1071; Quantity n 0.09) was 14 mm and the “Diameter of zone of inhibition” value (S. epidermidis 1071; Quantity n 0.19) was 20 mm. For the same substance, the “Diameter of zone of inhibition” value (S. epidermidis 847; Quantity n [mol] 0.019) was “r”, the “Diameter of zone of inhibition” value (S. epidermidis 847; Quantity n [mol] 0.09) was 12 mm and the “Diameter of zone of inhibition” value (S. epidermidis 847; Quantity n [mol] 0.19) was 18 mm. For the same substance, the “Diameter of zone of inhibition” value (S. epidermidis 563; Quantity n 0.019) was “r”, the “Diameter of zone of inhibition” value (S. epidermidis 563; Quantity n 0.09) was 14 mm and the “Diameter of zone of inhibition” value (S. epidermidis 563; Quantity n 0.19) was 18 mm. For the same substance, the “Diameter of zone of inhibition” value ([1]; Quantity n 0.019) was “r”, the “Diameter of zone of inhibition” value ([1]; Quantity n 0.09) was “r” and the “Diameter of zone of inhibition” value ([1]; Quantity n 0.19) was “r”. The “Diameter of zone of inhibition” value ([2]; Quantity n 0.019) was “r”, the “Diameter of zone of inhibition” value ([2]; Quantity n 0.09) was “r” and the “Diameter of zone of inhibition” value ([2]; Quantity n 0.19) was 10 mm. The “Diameter of zone of inhibition” value ([3]; Quantity n 0.019) was “r”, the “Diameter of zone of inhibition” value ([3]; Quantity n 0.09) was 8 mm and the “Diameter of zone of inhibition” value ([3]; Quantity n 0.19) was 12 mm. The “Diameter of zone of inhibition” value (S. aureus 36881; Quantity n 0.019) was “r”, the “Diameter of zone of inhibition” value (S. aureus 36881; Quantity n 0.09) was “r” and the “Diameter of zone of inhibition” value (S. aureus 36881; Quantity n 0.19) was 12 mm. For the same substance, the “Diameter of zone of inhibition” value (S. aureus 526; Quantity n 0.019) was “r”, the “Diameter of zone of inhibition” value (S. aureus 526; Quantity n 0.09) was “r” and the “Diameter of zone of inhibition” value (S. aureus 526; Quantity n 0.19) was “r”. For the same substance, the “Diameter of zone of inhibition” value (S. aureus 33490; Quantity n [μmol] 0.019) was “r”, the “Diameter of zone of inhibition” value (S. aureus 33490; Quantity n [μmol] 0.09) was 16 mm and the “Diameter of zone of inhibition” value (S. aureus 33490; Quantity n [μmol] 0.19) was 20 mm. For the same substance, the “Diameter of zone of inhibition” value (S. aureus 39105; Quantity n 0.019) was “r”, the “Diameter of zone of inhibition” value (S. aureus 39105; Quantity n 0.09) was 8 mm and the “Diameter of zone of inhibition” value (S. aureus 39105; Quantity n 0.19) was 14 mm. The “Diameter of zone of inhibition” value (S. aureus 34289; Quantity n [mol] 0.019) was “r”, the “Diameter of zone of inhibition” value (S. aureus 34289; Quantity n [mol] 0.09) was “r” and the “Diameter of zone of inhibition” value (S. aureus 34289; Quantity n [mol] 0.19) was “r”. The “Diameter of zone of inhibition” value (S. aureus 520; Quantity n [mol] 0.019) was “r”, the “Diameter of zone of inhibition” value (S. aureus 520; Quantity n [mol] 0.09) was “r” and the “Diameter of zone of inhibition” value (S. aureus 520; Quantity n [mol] 0.19) was “r”. The “Diameter of zone of inhibition” value (B. subtilis AWD 166; Quantity n 0.019) was 22 mm, the “Diameter of zone of inhibition” value (B. subtilis AWD 166; Quantity n 0.09) was 30 mm and the “Diameter of zone of inhibition” value (B. subtilis AWD 166; Quantity n 0.19) was 32 mm. For the same substance, the “Diameter of zone of inhibition” value (E. faecalis 945; Quantity n 0.019) was “r”, the “Diameter of zone of inhibition” value (E. faecalis 945; Quantity n 0.09) was “r” and the “Diameter of zone of inhibition” value (E. faecalis 945; Quantity n 0.19) was “r”. For the same substance, the “Diameter of zone of inhibition” value ([4]; Quantity n 0.019) was “r”, the “Diameter of zone of inhibition” value ([4]; Quantity n 0.09) was 14 mm and the “Diameter of zone of inhibition” value ([4]; Quantity n 0.19) was 18 mm. For the same substance, the “Diameter of zone of inhibition” value (S. epidermidis 125; Quantity n 0.019) was 12 mm, the “Diameter of zone of inhibition” value (S. epidermidis 125; Quantity n 0.09) was 24 mm and the “Diameter of zone of inhibition” value (S. epidermidis 125; Quantity n 0.19) was 28 mm. The “Diameter of zone of inhibition” value ([5]; Quantity n 0.019) was 18 mm, the “Diameter of zone of inhibition” value ([5]; Quantity n 0.09) was 28 mm and the “Diameter of zone of inhibition” value ([5]; Quantity n 0.19) was 32 mm. For the same substance, the “Diameter of zone of inhibition” value (S. aureus ATCC 6538; Quantity n 0.019) was 20 mm, the “Diameter of zone of inhibition” value (S. aureus ATCC 6538; Quantity n 0.09) was 28 mm and the “Diameter of zone of inhibition” value (S. aureus ATCC 6538; Quantity n 0.19) was 30 mm. The “Diameter of zone of inhibition” value (S. aureus 38418; Quantity n [mol] 0.019) was 12 mm, the “Diameter of zone of inhibition” value (S. aureus 38418; Quantity n [mol] 0.09) was 22 mm and the “Diameter of zone of inhibition” value (S. aureus 38418; Quantity n [mol] 0.19) was 28 mm.
